Test results reported in patent US20100267561A1, “HERBICIDAL PYRIDAZINONE DERIVATIVES” (priority 2007, published 2010).

Legend:
Format in all cases: in vivo
[1] = test system: windgrass (Apera spica-venti); test: Test B postemergence plant response; details: for Windgrass plant response rating: 8 g ai/ha, postemergence, 0-100 scale; for Plant response rating, Windgrass: Postemergence
How it was run: (§1)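 Emerged plants, 1- to 4-leaf stage, treated; greenhouse 13–15 d; eye-scored vs untreated controls (0–100 scale).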

[2] = test system: canarygrass (Phalaris minor); test: Test B postemergence plant response; details: for Canarygrass plant response rating: 8 g ai/ha, postemergence, 0-100 scale; for Plant response rating, Canarygrass: Postemergence
How it was run: as §1

[3] = test system: winter barley (Hordeum vulgare); test: Test B postemergence plant response; details: for Barley plant response rating: 8 g ai/ha, postemergence, 0-100 scale; for Plant response rating, Barley: Postemergence, scale 0 to 100, 0 no effect, 100 complete control
How it was run: as §1

[4] = test system: chickweed (Stellaria media); test: Test B postemergence plant response; details: for Chickweed plant response rating: 8 g ai/ha, postemergence, 0-100 scale; for Plant response rating, Chickweed: Postemergence
How it was run: as §1

[5] = test system: pigweed (Amaranthus retroflexus); test: Test B pre-/postemergence plant response
How it was run: (§2)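 Visual scoring from 0 (no effect) to 100 (complete control) against untreated controls was done 13 to 15 days after greenhouse treatment. Chemicals were formulated in a surfactant-containing non-phytotoxic solvent and applied to soil preemergence or to 1- to 4-leaf (2-18 cm) plants postemergence.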

[6] = test system: johnsongrass (Sorghum halepense); test: Test B pre-/postemergence plant response
How it was run: as §2

[7] = test system: catchweed bedstraw (Galium aparine); test: Test B pre-/postemergence plant response; details: Preemergence
How it was run: as §2

[8] = test system: wheat (Triticum aestivum); test: Test A pre-/postemergence plant response
How it was run: (§3)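 Soil: loam blended with sand. Formulation: non-phytotoxic solvent mixture plus surfactant, applied as preemergence directed soil spray and as postemergence spray. Scoring: visual, 0 no effect to 100 complete control, roughly 10 days post-treatment in greenhouse.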

[9] = test system: pigweed (Amaranthus retroflexus); test: Test A pre-/postemergence plant response
How it was run: as §3

[10] = test system: morningglory (Ipomoea coccinea); test: Test A pre-/postemergence plant response
How it was run: as §3

corn (Zea mays) = test: Test A pre-/postemergence plant response
How it was run: as §3

[11] = test system: barnyardgrass (Echinochloa crus-galli); test: Test A pre-/postemergence plant response
How it was run: as §3

[12] = 62 g ai/ha, scale 0 to 100, 0 no effect, 100 complete control
[13] = 8 g ai/ha, postemergence, 0-100 scale
[14] = Postemergence, 16 g ai/ha, scale 0 to 100
[15] = Postemergence, 31 g ai/ha, scale 0 to 100
[16] = Postemergence, 62 g ai/ha, scale 0 to 100, 0 no effect, 100 complete control
[17] = Preemergence, 16 g ai/ha, scale 0 to 100 (0 no effect, 100 complete control)
[18] = Preemergence, 31 g ai/ha, scale 0 to 100 (0 no effect, 100 complete control)
[19] = Preemergence, 62 g ai/ha, scale 0 to 100
[20] = Preemergence, 8 g ai/ha, scale 0 to 100
[21] = Preemergence, 31 g ai/ha, 0 to 100 scale, 0 no effect, 100 complete control
[22] = Postemergence, 31 g ai/ha, 0 to 100 scale, 0 no effect, 100 complete control
[23] = Postemergence, 125 g ai/ha, 0 to 100 scale, 0 no effect, 100 complete control
[24] = Preemergence, 31 g ai/ha, 0 to 100 scale, 0 is no effect, 100 is complete control
[25] = Preemergence, 125 g ai/ha, 0 to 100 scale (0 no effect, 100 complete control)
[26] = Preemergence, 16 g ai/ha, scale 0 to 100

Compound: Cn1ncc(O)c(-n2nc(-c3ccc(Cl)cc3)cc2C2CC2)c1=O [Compound 45]
- Windgrass plant response rating [1]: 30
- Plant response rating, Windgrass ([1]; 16 g ai/ha, scale 0 to 100): 35
- Plant response rating, Windgrass ([1]; 31 g ai/ha, scale 0 to 100): 60
- Plant response rating, Windgrass [1, 12]: 65
- Canarygrass plant response rating [2]: 0
- Plant response rating, Canarygrass ([2]; 16 g ai/ha, scale 0 to 100): 0
- Plant response rating, Canarygrass ([2]; 31 g ai/ha, scale 0 to 100): 0
- Plant response rating, Canarygrass [2, 12]: 0
- Barley plant response rating [3]: 5
- Plant response rating, Barley ([3]; 16 g ai/ha): 5
- Plant response rating, Barley ([3]; 31 g ai/ha): 5
- Plant response rating, Barley ([3]; 62 g ai/ha): 5
- Chickweed plant response rating [4]: 0
- Plant response rating, Chickweed ([4]; 16 g ai/ha, scale 0 to 100): 0
- Plant response rating, Chickweed ([4]; 31 g ai/ha, scale 0 to 100): 0
- Plant response rating, Chickweed [4, 12]: 0
- Pigweed plant response rating [5, 13]: 0
- Plant response rating, Pigweed [5, 14]: 0
- Plant response rating, Pigweed [5, 15]: 0
- Plant response rating, Pigweed [5, 16]: 0
- Plant response rating, Pigweed [5, 17]: 0
- Plant response rating, Pigweed [5, 18]: 0
- Plant response rating, Pigweed [5, 19]: 0
- Pigweed plant response rating [5, 20]: 0
- Johnsongrass plant response rating [6, 13]: 60
- Plant response rating, Johnsongrass [6, 14]: 65
- Plant response rating, Johnsongrass [6, 15]: 65
- Plant response rating, Johnsongrass [6, 16]: 70
- Plant response rating, Johnsongrass [6, 17]: 20
- Plant response rating, Johnsongrass [6, 21]: 75
- Plant response rating, Johnsongrass [6, 19]: 98
- Johnsongrass plant response rating [6, 20]: 15
- Plant response rating, Galium ([7]; 16 g ai/ha, scale 0 to 100 (0 no effect, 100 complete control)): 0
- Plant response rating, Galium ([7]; 31 g ai/ha, 0 to 100 scale, 0 no effect, 100 complete control): 0
- Plant response rating, Galium ([7]; 62 g ai/ha, scale 0 to 100): 0
- Galium plant response rating ([7]; 8 g ai/ha, scale 0 to 100): 0
- Plant response rating, Wheat [8, 22]: 70
- Plant response rating, Wheat [8, 23]: 90
- Plant response rating, Wheat [8, 24]: 50
- Plant response rating, Wheat [8, 25]: 80
- Plant response rating, Pigweed [9, 22]: 0
- Plant response rating, Pigweed [9, 23]: 0
- Plant response rating, Pigweed [9, 24]: 0
- Plant response rating, Pigweed [9, 25]: 0
- Plant response rating, Morningglory [10, 22]: 0
- Plant response rating, Morningglory [10, 23]: 0
- Plant response rating, Morningglory [10, 24]: 0
- Plant response rating, Morningglory [10, 25]: 0
- Plant response rating, Corn (corn (Zea mays); [22]): 40
- Plant response rating, Corn (corn (Zea mays); [23]): 80
- Plant response rating, Corn (corn (Zea mays); [24]): 0
- Plant response rating, Corn (corn (Zea mays); [25]): 60
- Plant response rating, Barnyardgrass [11, 22]: 80
- Plant response rating, Barnyardgrass [11, 23]: 100
- Plant response rating, Barnyardgrass [11, 24]: 90
- Plant response rating, Barnyardgrass [11, 25]: 100

Compound: Cc1cc(-c2ccc(Cl)cc2)nn1-c1c(OC(=O)c2cccs2)cnn(C)c1=O [Compound 52]
- Windgrass plant response rating [1]: 0
- Plant response rating, Windgrass ([1]; 16 g ai/ha, scale 0 to 100): 0
- Plant response rating, Windgrass ([1]; 31 g ai/ha, scale 0 to 100): 60
- Plant response rating, Windgrass [1, 12]: 80
- Canarygrass plant response rating [2]: 0
- Plant response rating, Canarygrass ([2]; 16 g ai/ha, scale 0 to 100): 0
- Plant response rating, Canarygrass ([2]; 31 g ai/ha, scale 0 to 100): 0
- Plant response rating, Canarygrass [2, 12]: 5
- Barley plant response rating [3]: 0
- Plant response rating, Barley ([3]; 16 g ai/ha): 0
- Plant response rating, Barley ([3]; 31 g ai/ha): 0
- Plant response rating, Barley ([3]; 62 g ai/ha): 0
- Chickweed plant response rating [4]: 0
- Plant response rating, Chickweed ([4]; 16 g ai/ha, scale 0 to 100): 0
- Plant response rating, Chickweed ([4]; 31 g ai/ha, scale 0 to 100): 0
- Plant response rating, Chickweed [4, 12]: 0
- Pigweed plant response rating [5, 13]: 0
- Plant response rating, Pigweed [5, 14]: 0
- Plant response rating, Pigweed [5, 15]: 0
- Plant response rating, Pigweed [5, 16]: 0
- Plant response rating, Pigweed [5, 18]: 0
- Plant response rating, Pigweed [5, 19]: 0
- Pigweed plant response rating [5, 20]: 0
- Pigweed plant response rating [5, 26]: 0
- Johnsongrass plant response rating [6, 13]: 75
- Plant response rating, Johnsongrass [6, 14]: 80
- Plant response rating, Johnsongrass [6, 15]: 90
- Plant response rating, Johnsongrass [6, 16]: 95
- Plant response rating, Johnsongrass [6, 21]: 80
- Plant response rating, Johnsongrass [6, 19]: 85
- Johnsongrass plant response rating [6, 20]: 55
- Johnsongrass plant response rating [6, 26]: 65
- Plant response rating, Galium ([7]; 62 g ai/ha, scale 0 to 100): 0
- Galium plant response rating ([7]; 8 g ai/ha, scale 0 to 100): 0
- Galium plant response rating ([7]; 16 g ai/ha, scale 0 to 100): 0
- Plant response rating, Wheat [8, 22]: 30
- Plant response rating, Wheat [8, 23]: 60
- Plant response rating, Wheat [8, 24]: 10
- Plant response rating, Wheat [8, 25]: 80
- Plant response rating, Pigweed [9, 22]: 0
- Plant response rating, Pigweed [9, 23]: 0
- Plant response rating, Pigweed [9, 24]: 0
- Plant response rating, Pigweed [9, 25]: 0
- Plant response rating, Morningglory [10, 22]: 0
- Plant response rating, Morningglory [10, 23]: 0
- Plant response rating, Morningglory [10, 24]: 0
- Plant response rating, Morningglory [10, 25]: 20
- Plant response rating, Corn (corn (Zea mays); [22]): 30
- Plant response rating, Corn (corn (Zea mays); [23]): 100
- Plant response rating, Corn (corn (Zea mays); [24]): 0
- Plant response rating, Corn (corn (Zea mays); [25]): 70
- Plant response rating, Barnyardgrass [11, 22]: 80
- Plant response rating, Barnyardgrass [11, 23]: 100
- Plant response rating, Barnyardgrass [11, 24]: 70
- Plant response rating, Barnyardgrass [11, 25]: 100

Compound: CCOC(=O)Oc1cnn(C)c(=O)c1-n1nc(-c2ccc(Cl)cc2)cc1C [Compound 53]
- Windgrass plant response rating [1]: 0
- Plant response rating, Windgrass ([1]; 16 g ai/ha, scale 0 to 100): 20
- Plant response rating, Windgrass ([1]; 31 g ai/ha, scale 0 to 100): 40
- Plant response rating, Windgrass [1, 12]: 60
- Canarygrass plant response rating [2]: 0
- Plant response rating, Canarygrass ([2]; 16 g ai/ha, scale 0 to 100): 0
- Plant response rating, Canarygrass ([2]; 31 g ai/ha, scale 0 to 100): 0
- Plant response rating, Canarygrass [2, 12]: 0
- Barley plant response rating [3]: 0
- Plant response rating, Barley ([3]; 16 g ai/ha): 0
- Plant response rating, Barley ([3]; 31 g ai/ha): 0
- Plant response rating, Barley ([3]; 62 g ai/ha): 0
- Chickweed plant response rating [4]: 0
- Plant response rating, Chickweed ([4]; 16 g ai/ha, scale 0 to 100): 0
- Plant response rating, Chickweed ([4]; 31 g ai/ha, scale 0 to 100): 0
- Plant response rating, Chickweed [4, 12]: 0
- Pigweed plant response rating [5, 13]: 0
- Plant response rating, Pigweed [5, 14]: 0
- Plant response rating, Pigweed [5, 15]: 0
- Plant response rating, Pigweed [5, 16]: 0
- Plant response rating, Pigweed [5, 18]: 0
- Plant response rating, Pigweed [5, 19]: 0
- Pigweed plant response rating [5, 20]: 0
- Pigweed plant response rating [5, 26]: 0
- Johnsongrass plant response rating [6, 13]: 35
- Plant response rating, Johnsongrass [6, 14]: 70
- Plant response rating, Johnsongrass [6, 15]: 98
- Plant response rating, Johnsongrass [6, 16]: 100
- Plant response rating, Johnsongrass [6, 21]: 75
- Plant response rating, Johnsongrass [6, 19]: 100
- Johnsongrass plant response rating [6, 20]: 45
- Johnsongrass plant response rating [6, 26]: 65
- Galium plant response rating ([7]; 8 g ai/ha, scale 0 to 100): 0
- Plant response rating, Wheat [8, 22]: 20
- Plant response rating, Wheat [8, 23]: 70
- Plant response rating, Wheat [8, 24]: 50
- Plant response rating, Wheat [8, 25]: 90
- Plant response rating, Pigweed [9, 22]: 0
- Plant response rating, Pigweed [9, 23]: 0
- Plant response rating, Pigweed [9, 24]: 0
- Plant response rating, Pigweed [9, 25]: 0
- Plant response rating, Morningglory [10, 22]: 0
- Plant response rating, Morningglory [10, 23]: 20
- Plant response rating, Morningglory [10, 24]: 0
- Plant response rating, Morningglory [10, 25]: 0
- Plant response rating, Corn (corn (Zea mays); [22]): 80
- Plant response rating, Corn (corn (Zea mays); [23]): 90
- Plant response rating, Corn (corn (Zea mays); [24]): 0
- Plant response rating, Corn (corn (Zea mays); [25]): 70
- Plant response rating, Barnyardgrass [11, 22]: 90
- Plant response rating, Barnyardgrass [11, 23]: 100
- Plant response rating, Barnyardgrass [11, 24]: 100
- Plant response rating, Barnyardgrass [11, 25]: 100
